Literature values in patent publication US7853626B2, “Computational systems for biomedical data” (The Invention Science Fund I, LLC, priority 2006, dated 2010).
Read-outs that look alike come from different tables or passages of the source.

Assays:
hyperthyroidism = settings: groups not comparable at baseline (surgery group younger, in better health)

| SMILES | frequency of illness and death compared with surgery (hyperthyroidism) | subset efficacy (members of the identified subpopulation (low methylmalonic acid / homocysteine)) | odds ratio of developing severe toxicity (overall study population) | odds ratio of developing severe toxicity (subpopulation with total homocysteine levels of less than 7.5 μmol/l) |
| --- | --- | --- | --- | --- |
| [131IH] [iodine-131] | much higher frequency of illness and death |  |  |  |
| Nc1nc2[nH]cc(CCc3ccc(C(=O)N[C@@H](CCC(=O)O)C(=O)O)cc3)c2c(=O)[nH]1 [pemetrexed] |  | maintained or improved efficacy | 1 | 0.7 |
